64 compounds from ChEMBL document CHEMBL3272258, “Quantitative structure-activity relationships. 1. The modified Free-Wilson approach” (J Med Chem, 1976) can be followed below.

The species entered for one data set is Rattus norvegicus. The data set can be described thus: Antagonist activity at rat adrenergic receptor assessed as inhibition of adrenaline-induced response.
Turning to `Cc1cccc(C(Br)CN(C)C)c1` (configuration not stated), the log(1/C) came to 8.46.

`CN(C)CC(Br)c1ccc(F)cc1` (configuration not stated): the log(1/C) was 8.16.

For the compound `Cc1ccc(C(Br)CN(C)C)cc1Br` (configuration not stated), the log(1/C) amounted to 9.52.

For `Cc1cc(C(Br)CN(C)C)ccc1F` (configuration not stated), the log(1/C) is 8.82.

As for `CN(C)CC(Br)c1ccc(F)c(Br)c1` (configuration not stated), the log(1/C) was determined as 8.57.

As for `Cc1cc(C(Br)CN(C)C)ccc1Br` (configuration not stated), the log(1/C) stood at 9.22.

On to `CN(C)CC(Br)c1cccc(I)c1` (configuration not stated), for which the log(1/C) was 8.4.

`CN(C)CC(Br)c1ccc(Br)c(Cl)c1` (configuration not stated): the log(1/C) was found to be 9.

As to `CN(C)CC(Br)c1cccc(Cl)c1` (configuration not stated), the log(1/C) worked out at 8.16.

As for `Cc1ccc(C(Br)CN(C)C)cc1` (configuration not stated), the log(1/C) was 9.3.

Regarding `CN(C)CC(Br)c1ccc(Br)cc1` (configuration not stated), the log(1/C) was 8.89.

As to `CN(C)CC(Br)c1ccccc1` (configuration not stated), the log(1/C) stood at 7.46.

As to `CN(C)CC(Br)c1ccc(Cl)c(Cl)c1` (configuration not stated), the log(1/C) came out at 8.89.

For `CN(C)CC(Br)c1ccc(Cl)c(Br)c1` (configuration not stated), the log(1/C) came out at 8.92.

`CN(C)CC(Br)c1ccc(I)cc1` (configuration not stated): the log(1/C) was 9.25.

As for `CN(C)CC(Br)c1ccc(Br)c(Br)c1` (configuration not stated), the log(1/C) was 9.35.

In the case of `CN(C)CC(Br)c1ccc(F)c(Cl)c1` (configuration not stated), the log(1/C) amounted to 8.19.

Take `CN(C)CC(Br)c1ccc(Cl)cc1` (configuration not stated): the log(1/C) stood at 8.68.

Take `CN(C)CC(Br)c1cccc(F)c1` (configuration not stated): the log(1/C) amounted to 7.52.

In the case of `CN(C)CC(Br)c1cccc(Br)c1` (configuration not stated), the log(1/C) amounted to 8.3.

Take `Cc1ccc(C(Br)CN(C)C)cc1C` (configuration not stated): the log(1/C) stood at 9.3.

Regarding `Cc1cc(C(Br)CN(C)C)ccc1Cl` (configuration not stated), the log(1/C) amounted to 8.96.

The test system of the next data set is Trichophyton mentagrophytes. Nature of the data set: Antifungal activity against Trichophyton mentagrophytes assessed as growth inhibition measured for 14 days by tube dilution method. The data set is classed as functional.
`OCC(O)COc1ccc(Cl)cc1Cl` (configuration not stated): the “log(1/C)” value is recorded as 2.61.

As for `CC(O)COc1ccccc1Cl` (configuration not stated), the “log(1/C)” value is listed as 2.84.

In the case of `Cc1cc(Cl)c(OCC(O)CO)c(Cl)c1` (configuration not stated), the “log(1/C)” value is given as 3.1.

Regarding `CC(O)COc1ccc(Cl)cc1` (configuration not stated), the “log(1/C)” value came out at 2.81.

With `Cc1cccc(Cl)c1OCCCO`, the “log(1/C)” value is listed as 2.78.

Take `Cc1ccccc1OCC(C)O` (configuration not stated): the “log(1/C)” value came out at 2.46.

As for `Cc1ccccc1OCCCO`, the “log(1/C)” value stood at 2.79.

`OCC(O)COc1ccc(Cl)cc1` (configuration not stated): the “log(1/C)” value stood at 2.31.

For `Cc1cc(OCCCO)cc(C)c1Cl`, the “log(1/C)” value is given as 3.93.

Regarding `OCC(O)COc1c(Cl)cccc1Cl` (configuration not stated), the “log(1/C)” value is 2.37.

For `Cc1cc(OCC(C)O)cc(C)c1Cl` (configuration not stated), the “log(1/C)” value came out at 3.68.

For `Cc1cc(OCC(O)CO)cc(C)c1Cl` (configuration not stated), the “log(1/C)” value came out at 3.24.

Consider `Cc1cc(Cl)c(OCC(C)O)c(Cl)c1` (configuration not stated), for which the “log(1/C)” value came out at 3.47.

As for `Cc1cc(Cl)c(OCCCO)c(Cl)c1`, the “log(1/C)” value is on record as 3.67.

`OCC(O)COc1ccccc1Cl` (configuration not stated): the “log(1/C)” value is 2.31.

With `CC(O)COc1c(Cl)cccc1Cl` (configuration not stated), the “log(1/C)” value is 3.04.

Turning to `Cc1cccc(Cl)c1OCC(O)CO` (configuration not stated), the “log(1/C)” value was 2.33.

As for `Cc1cc(Cl)cc(C)c1OCCCO`, the “log(1/C)” value was found to be 3.51.

With `OCCCOc1ccc(Cl)cc1`, the “log(1/C)” value was 3.07.

For the compound `CC(O)COc1ccc(Cl)cc1Cl` (configuration not stated), the “log(1/C)” value was found to be 3.35.

`Cc1ccccc1OCC(O)CO` (configuration not stated) [MEPHENESIN]: the “log(1/C)” value worked out at 2.26.

As for `Cc1cc(Cl)ccc1OCC(O)CO` (configuration not stated), the “log(1/C)” value came out at 2.33.

For the compound `Cc1cc(Cl)ccc1OCC(C)O` (configuration not stated), the “log(1/C)” value worked out at 3.3.

For the compound `Cc1cc(Cl)cc(C)c1OCC(O)CO` (configuration not stated), the “log(1/C)” value came to 2.76.

In the case of `Cc1cccc(Cl)c1OCC(C)O` (configuration not stated), the “log(1/C)” value was found to be 2.7.

As to `Cc1cc(OCC(O)CO)ccc1Cl` (configuration not stated), the “log(1/C)” value turned out to be 2.9.

For `Cc1cc(Cl)cc(C)c1OCC(C)O` (configuration not stated), the “log(1/C)” value was determined as 3.51.

For `Cc1cc(OCC(C)O)ccc1Cl` (configuration not stated), the “log(1/C)” value was 3.3.

For another data set, the species on record is Rattus norvegicus. The data set can be described thus: Binding affinity to rat thyroid hormone receptor.
With `NC(Cc1cc(I)c(Oc2cc(Br)c(O)c(Br)c2)c(I)c1)C(=O)O` (racemic), the log(activity) was 1.

In the case of `NC(Cc1cc(Cl)c(Oc2cc(I)c(O)c(I)c2)c(Cl)c1)C(=O)O` (racemic), the log(activity) was -1.

For the compound `NC(Cc1cc(I)c(Oc2cc(I)c(O)c(I)c2)c(I)c1)C(=O)O` (racemic), the log(activity) was determined as 2.

Compound `NC(Cc1cc(I)c(Oc2cc(Cl)c(O)c(Cl)c2)c(I)c1)C(=O)O` (racemic) had a log(activity) of -0.05.

For the compound `NC(Cc1cc(Br)c(Oc2ccc(O)c(I)c2)c(Br)c1)C(=O)O` (racemic), the log(activity) was determined as 2.11.

The compound `NC(Cc1cc(I)c(Oc2ccc(O)c(Br)c2)c(I)c1)C(=O)O` (racemic) returned a log(activity) of 2.3.

Regarding `NC(Cc1cc(Br)c(Oc2cc(I)c(O)c(I)c2)c(Br)c1)C(=O)O` (racemic), the log(activity) was found to be 1.1.

With `NC(Cc1cc(I)c(Oc2ccc(O)cc2)c(I)c1)C(=O)O` (racemic), the log(activity) was -0.43.

Turning to `NC(Cc1cc(Br)c(Oc2ccc(O)c(Br)c2)c(Br)c1)C(=O)O` (racemic), the log(activity) was 1.64.

For the compound `NC(Cc1cc(I)c(Oc2ccc(O)c(F)c2)c(I)c1)C(=O)O` (racemic), the log(activity) turned out to be 0.38.

Consider `NC(Cc1cc(I)c(Oc2cc(F)c(O)c(I)c2)c(I)c1)C(=O)O` (racemic), for which the log(activity) was determined as 1.45.

In turn, `NC(Cc1cc(Br)c(Oc2cc(Br)c(O)c(Br)c2)c(Br)c1)C(=O)O` (racemic) gave a log(activity) of -0.29.

In turn, `NC(Cc1cc(I)c(Oc2cc(F)c(O)c(F)c2)c(I)c1)C(=O)O` (racemic) gave a log(activity) of 0.26.

`NC(Cc1cc(I)c(Oc2ccc(O)c(I)c2)c(I)c1)C(=O)O` (racemic) came in with a log(activity) of 2.74.

System in a further data set: not listed separately
The data set can be described thus: n-octanol-water partition coefficient, log P of the compound. It counts as physicochemical.
Regarding `OCC(O)COc1ccc(Cl)cc1Cl` (configuration not stated), the logP was determined as 1.99.

`CC(O)COc1ccccc1Cl` (configuration not stated): the logP worked out at 2.05.

The compound `Cc1cc(Cl)c(OCC(O)CO)c(Cl)c1` (configuration not stated) registered a logP of 2.4.

`CC(O)COc1ccc(Cl)cc1` (configuration not stated): the logP was found to be 2.16.

Turning to `Cc1cccc(Cl)c1OCCCO`, the logP is 2.93.

For `Cc1ccccc1OCC(C)O` (configuration not stated), the lipophilicity (logP) is 2.14.

`Cc1ccccc1OCCCO` had a logP of 2.34.

As to `OCC(O)COc1ccc(Cl)cc1` (configuration not stated), the logP amounted to 1.4.

Regarding `Cc1cc(OCCCO)cc(C)c1Cl`, the logP was 3.38.

As to `OCC(O)COc1c(Cl)cccc1Cl` (configuration not stated), the logP came out at 1.88.

On to `Cc1cc(OCC(C)O)cc(C)c1Cl` (configuration not stated), for which the logP came out at 3.18.

`Cc1cc(OCC(O)CO)cc(C)c1Cl` (configuration not stated) registered a logP of 2.42.

Take `Cc1cc(Cl)c(OCC(C)O)c(Cl)c1` (configuration not stated): the logP was found to be 3.16.

In turn, `Cc1cc(Cl)c(OCCCO)c(Cl)c1` came in with a logP of 3.36.

On to `OCC(O)COc1ccccc1Cl` (configuration not stated), for which the logP was 1.29.

`CC(O)COc1c(Cl)cccc1Cl` (configuration not stated) displayed a logP of 2.64.

For the compound `Cc1cccc(Cl)c1OCC(O)CO` (configuration not stated), the logP worked out at 1.97.

`Cc1cc(Cl)cc(C)c1OCCCO` had a logP of 3.72.

Turning to `OCCCOc1ccc(Cl)cc1`, the logP is 2.36.

In turn, `CC(O)COc1ccc(Cl)cc1Cl` (configuration not stated) returned a log partition coefficient (logP) of 2.75.

`Cc1ccccc1OCC(O)CO` (configuration not stated) [MEPHENESIN] registered a logP of 1.38.

`Cc1cc(Cl)ccc1OCC(O)CO` (configuration not stated) gave a lipophilicity (logP) of 2.08.

With `Cc1cc(Cl)ccc1OCC(C)O` (configuration not stated), the logP turned out to be 2.84.

Compound `Cc1cc(Cl)cc(C)c1OCC(O)CO` (configuration not stated) registered a logP of 2.76.

`Cc1cccc(Cl)c1OCC(C)O` (configuration not stated) yielded a logP of 2.73.

On to `Cc1cc(OCC(O)CO)ccc1Cl` (configuration not stated), for which the log partition coefficient (logP) was determined as 1.91.

With `Cc1cc(Cl)cc(C)c1OCC(C)O` (configuration not stated), the logP was 3.52.

In the case of `Cc1cc(OCC(C)O)ccc1Cl` (configuration not stated), the logP was found to be 2.67.

A word on the logP: it is a log measure of how a compound divides between an organic and an aqueous phase.
